pIC50: −log10 of the molar value. Where “and” joins values, the source holds several entries; their conditions need not be identical. Equal entries are not always repeated.
What was measured:
[1] = target: T1, IRP2 binding to Ferritin-L IRE (Homo sapiens, UniProt P48200); assay: Electrophoretic mobility shift assay, Ferritin L IRE probe; settings: 786-O lysates, EMSA
T1 construct: when expressed in endogenous levels; endogenous in cells; host or cells: 786-O
Description: EMSAs were performed as described previously (Fillebeen et al., 2003). Briefly, 50 μg lysate from 786-O cells treated with medium only, DMSO, or compounds were incubated with 25,000 cpm wild-type or mutant radiolabeled HIF-2a IRE probe for 20 minutes at room temperature before loading onto non-denaturing acrylamide gels. Supershifts were performed identically, save that 0.2 μg control, IRP1 or IRP2 antibodies were also added. Total protein content was estimated by Bradford Assay (BioRad, 500-0006), and even loading for all experiments was confirmed by Western blot for B-Actin.
Inventors discovered that compound 76 increased the residual amount of IRP1 bound to the HIF-2a IRE in hypoxia, although not to the same extent as that observed in normoxic cells. […] Lastly, to further investigate the involvement of IRP2 in HIF-2a IRE, the inventors compared side by side IRP2 binding to HIF-2a and Ferritin-L IRE in 786-O cells, in conditions of normoxia or hypoxia and after treatment with compound 76 or DFO (FIG. 7E). While IRP2 binding was clearly detected on Ferritin IRE, the inventors were not able to detect measurable IRP2 binding on HIF-2a IRE.

Fli1-GFP fish embryo = assay: Inhibition of vascularization in fish embryo; settings: 3microM; treated at 20 hpf, imaged 48-50 hpf
IRP1 = IRP1 expression in treated cells; type: cell-based, human
Excerpt: The inventors next tested the effect of hypoxia on the binding of IRP1 to the HIF-2a wild-type IRE. […] This is due to decreased mRNA binding, as western blots confirm that neither compound application nor hypoxia affects IRP1 protein expression. The involvement of IRP1 was further confirmed with super-shifting experiments with IRP1 antibody (FIG. 7C). No supershifted bands were observed using IRP2 antibody.
However, IRP2 contributes very little—if at all—to the total IRP bound to the HIF2a IRE (Zimmer et al., 2008).

[2] = system: HIF-2a (HRE-luciferase, 7H4 cells); assay: HRE-luciferase reporter assay in 786-O derived 7H4 cells; type: cell-based, human
Description: The screen for small molecule inhibitors was performed in the Institute for Chemical and Cellular biology, Harvard Medical School. 7SV or 7H4 cells were plated onto 384-well plates. The next day compounds were added robotically to the medium, to a final concentration of approximately 10 μM. 24 hours later, media was aspirated and Passive Lysis Buffer (Promega) and Luciferase Assay Reagent II (Promega) were added. Luciferase activity was measured with an Analyst plate reader (LJL Biosystems). All experiments were performed in duplicate and the identity of lead compounds was confirmed by mass spectroscopy
Luciferase assays were performed using the Promega's Dual-luciferase Assay Reporter System (Promega, E1910) according to the manufacturer's instructions. Counts obtained from transient transfections were normalized for co-transfected Renilla luciferase. Stable clones were normalized to medium only treated wells.
Functionally validated HRE and control SV40 luciferase reporter constructs were stably introduced into VHL-deficient 786-O cells to generate 7H4 and 7SV lines, respectively (see FIG. 8A). These lines were used to screen five commercial small molecule libraries (NCI Diversity Set, Chembridge, Maybridge, CEREP and Peakdale) and the ICCB Diversity-Oriented Synthesis (DOS) Diversity Set 2 (DDS2) and serine-derived peptidomimetic (SDP1) collections, totaling 58,000 compounds.
786-O cells were untreated (M, for medium only), mock-treated (D, for DMSO) or treated with compounds for two days before assaying for normalized luciferase activity. The resulting dose response curves are shown along with the compound structures in FIGS. 1A-1H).
To validate the connectivity map-derived prediction that PGJ2 is involved in HIF signaling, the inventors treated HRE-luciferase expressing 786-O cells (7H4) and SV40-luciferase expressing control cells (7SV) with increasing doses of PGJ2.

T1 sequence (P48200 whole entry): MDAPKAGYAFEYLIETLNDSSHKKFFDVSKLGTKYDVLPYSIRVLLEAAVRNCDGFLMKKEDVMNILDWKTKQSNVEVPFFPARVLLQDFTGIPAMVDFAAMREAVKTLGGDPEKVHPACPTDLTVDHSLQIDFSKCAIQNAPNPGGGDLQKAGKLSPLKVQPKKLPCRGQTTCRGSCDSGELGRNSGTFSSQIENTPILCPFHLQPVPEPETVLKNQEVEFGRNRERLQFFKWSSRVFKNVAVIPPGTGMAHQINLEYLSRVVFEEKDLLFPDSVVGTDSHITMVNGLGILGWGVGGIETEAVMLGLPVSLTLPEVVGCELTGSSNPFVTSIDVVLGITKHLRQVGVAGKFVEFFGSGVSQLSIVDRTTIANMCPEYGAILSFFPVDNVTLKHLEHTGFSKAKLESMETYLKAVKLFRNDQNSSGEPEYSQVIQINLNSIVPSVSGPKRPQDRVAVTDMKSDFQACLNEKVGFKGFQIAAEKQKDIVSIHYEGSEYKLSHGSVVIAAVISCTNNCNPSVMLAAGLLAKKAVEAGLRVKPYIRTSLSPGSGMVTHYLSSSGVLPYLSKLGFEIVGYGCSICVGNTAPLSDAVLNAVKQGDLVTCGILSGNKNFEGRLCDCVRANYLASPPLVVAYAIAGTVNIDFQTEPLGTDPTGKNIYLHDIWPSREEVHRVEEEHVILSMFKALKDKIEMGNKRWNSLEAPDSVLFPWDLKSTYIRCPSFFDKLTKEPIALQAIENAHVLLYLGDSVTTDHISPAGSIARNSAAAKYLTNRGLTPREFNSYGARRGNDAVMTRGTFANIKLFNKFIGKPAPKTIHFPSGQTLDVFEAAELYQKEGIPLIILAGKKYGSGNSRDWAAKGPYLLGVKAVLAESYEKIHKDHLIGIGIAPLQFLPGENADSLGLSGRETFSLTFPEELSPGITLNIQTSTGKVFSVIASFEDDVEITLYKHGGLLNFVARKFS

binding of IRP2 to Ferritin-L IRE [1]	Compound	Totals: Completed (Fli1-GFP fish embryo)	Totals: stalled (Fli1-GFP fish embryo)	completed of total, per animal (Fli1-GFP fish embryo)	IRP1 expression (IRP1)	pIC50 ([2]; 7H4 cells, luciferase measured at 48 hours, read-out: IC50app, HRE-driven luciferase activity)	HIF2a activity at various ambient oxygen concentrations ([2]; HRE-luciferase 786-O cells, 48 hours)
slightly enhanced	COC(=O)c1sccc1N/N=C(/C#N)S(C)(=O)=O [Compound 76, methyl 3-{2-[cyano(methylsulfonyl)methylene] hydrazino}thiophene-2-carboxylate]						
	CCCCC/C=C/C=C1/C(=O)C=C[C@@H]1C/C=C\CCCC(=O)O [PGJ2, 15-deoxy-Δ^12,14-prostaglandin J2]	47	39	6 of 17 (2×) and 17 of 18 and 9 of 17 (2×)	not affected	5.30	has the ability to repress HIF2a activity at a wide range of oxygen concentrations

— patent publication US10881656B2, “HIF inhibitors and use thereof” (The General Hospital Corporation, priority 2008, dated 2021)
